Experimental data published in patent US6903132B2, “Non-peptide GnRH agents, pharmaceutical compositions and methods for their use” (Agouron Pharmaceuticals, Inc., priority 2002, dated 2005).

target: T1, human GnRH receptors (Homo sapiens, UniProt P30968); assay: Radioligand binding assay: inhibition of binding of 125I-GnRH-A to GnRH receptors (membranes); conditions: Human GnRH receptor; competition with 125I-GnRH-A; Ki calculated from IC50 (Cheng et al.)
T1 construct: expressed in transfected cells; host or cells: HEK 293
T1 sequence (P30968 1-328): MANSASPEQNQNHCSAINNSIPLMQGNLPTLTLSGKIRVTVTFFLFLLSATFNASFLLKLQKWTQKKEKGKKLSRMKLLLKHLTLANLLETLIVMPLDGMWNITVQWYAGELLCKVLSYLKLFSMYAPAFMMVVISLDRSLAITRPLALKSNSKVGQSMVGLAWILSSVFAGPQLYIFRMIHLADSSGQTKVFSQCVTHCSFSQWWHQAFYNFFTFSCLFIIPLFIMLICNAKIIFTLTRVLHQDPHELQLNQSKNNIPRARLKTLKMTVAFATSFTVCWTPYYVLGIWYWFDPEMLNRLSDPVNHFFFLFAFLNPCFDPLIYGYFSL
Description: HEK 293 cells stably transfected with mouse or human GnRH receptors as described above are grown in Dulbecco's high-glucose, modified Eagle's medium (DMEM) supplemented with 0.2% G418, 10% fetal bovine serum (FBS) and 100U/mL penicillin/streptomycin. GH3 cells stably transfected with the rat GnRH receptor (GGH3) were provided by Dr. William Chin (Harvard Medical School, Boston, Mass.). These cells are extensively characterized previously (Kaiser et al., 1997). The cells are grown in low glucose DMEM containing: 100U/mL penicillin/streptomycin, 0.6% G418 and 10% heat-inactivated FBS.
HEK 293 cells containing mouse or human receptors, or rat pituitaries (Pel Freez Biologicals, Rogers, Ark.) are homogenized in buffer A containing: 50 mM Tris (pH 7.4), 0.32 M sucrose, 2 mM EGTA, 1 mM PMSF, 5 μg/ml aprotinen, 5 μg/ml Pepstatin A, and 1 μg/ml leupeptin. Homogenized cells are centrifuged at 4° C. at 20,000×g for 25 minutes, re-suspended in buffer A and re-centrifuged at 4° C. at 20,000×g for an additional 25 minutes. Total membrane protein was determined with a BCA kit (Pierce, Rockford, Ill.). Membranes are stored at −70° C. at a final membrane protein concentration of approximately 5 mg/ml.
The radioiodinated agonist analog of GnRH, [des-Gly^10, D-Ala^6]GnRH ethylamide (^125I-GnRH-A), is used as the radioligand. One μg of GnRH-A diluted in 0.5 M phosphate buffer (pH 7.4) is added to an lodogen®-coated borosilicate glass tube (Pierce, Rockford, Ill.) containing 35 μl of 0.05 M phosphate buffer (pH 7.4-7.6) and 1 mCi of Na[^125I]. The reaction mixture is vortexed and incubated for 1 minute at room temperature. After one minute, the mixture is vortexed and allowed to incubate for an additional minute. 2 ml of 0.5 M acetic acid/1% BSA is added to the reaction tube and the mixture is added to a C18 Sep-Pak cartridge. The cartridge is washed with subsequent washes of 5 ml H2O and 5 ml 0.5 M acetic acid and then eluted with 5×1 ml of 60%CH3CN/40% 0.5 M acetic acid. The eluate is diluted with 3× volume of HPLC buffer A (0.1% TFA in H2O) and loaded onto a C18 column. The iodinated product is eluted over 20-25 min with a gradient of 25-100% CH3CN containing 0.1% TFA. The radioactive fractions (750 μl/fraction) are collected into clean polypropylene tubes containing 100 μl of 10% BSA. Fractions are assessed for biological activity by radiolig and binding. Specific activity of the radioligand was approximately 2200 Ci/mmol.
Membranes are diluted to 0.01-0.5 mg/ml (depending upon the species of receptor) with assay buffer containing 50 mM HEPES (pH 7.4), 1 mM EDTA, 2.5 mM MgCl2, and 0.1% BSA. Membranes (diluted to utilize similar receptor numbers between assays) are incubated with approximately 0.04-0.06 nM ^125I-GnRH-A in the presence or absence of competing agents (0.1-10,000 nM) in a total volume of 200 μl in 96-well polypropylene plates for 1 hour at room temperature. Assays are stopped by rapid filtration onto 96-well GF/C filters soaked in 0.1% polyethylenimine (PEI) utilizing a Packard 96-well cell harvester. Filters are washed three times with ice-cold PBS (50 mM NaPO4, 0.9% NaCl, 2 mM MgCl2, and 0.02% NaN3, pH 7.4). 35 μl of scintillation cocktail is added to each filter well and filters are counted on a Packard Topcount. Control dose-response curves are generated to GnRH (0.1 nM-100 nM) in each competition binding experiment. Ki values were calculated from IC50 values according to Cheng et al., Biochemical Pharmacol. 22: 3099-3108, 1973. [formula]

SMILES	Ki
Cc1c(C)c(Cc2ccc(C(=O)NNc3cc(C)c4c(C)nn(C)c4n3)o2)c(C)c(Cc2ccc(C(=O)NNc3cc(C)c4c(C)nn(C)c4n3)o2)c1C [Example J29, 3-(2,3,4,6-Tetramethyl-5-{5-[N′-(1,3,4-trimethyl-1H-pyrazolo[3,4-b]pyridin-6-yl)-hydrazinocarbonyl]-furan-2-ylmethyl}-benzyl)-furan-1-carboxylic acid N′-(1,3,4-trimethyl-1H-pyrazolo[3,4-b]pyridin-6-yl)-hydrazide]	5230 nM
Cc1c(C)c(C)c(Cc2ccc(C(=O)NNc3cc(C)c4c(C)nn(C)c4n3)o2)c(C)c1C [Example J5, 5-(2,3,4,5,6-Pentamethylbenzyl)-N′-(1,3,4-trimethyl-1H-pyrazolo[3,4-b]pyridin-6-yl)-2-furohydrazide]	1400 nM
COc1cc(OC)c(OC)cc1Cc1ccc(C(=O)NNc2cc(C)c3c(C)nn(C)c3n2)o1 [Example J14, 5-(2,4,5-trimethoxybenzyl)-N-(1,3,4-trimethyl-1H-pyrazolo[3,4-b]pyridin-6-yl)-2-furohydrazide]	> 10000 nM
Cc1cccc(C)c1SCc1ccc(C(=O)NNc2cc(C)c3c(C)nn(C)c3n2)o1 [Example J25, 5-{[(2,6-dimethylphenyl)sulfanyl]methyl}-N′-(1,3,4-trimethyl-1H-pyrazolo[3,4-b]pyridin-6-yl)-2-furohydrazide]	1670 nM
COc1ccc(OC)c(OC)c1Cc1ccc(C(=O)NNc2cc(C)c3c(C)nn(C)c3n2)o1 [Example J9, 5-(2,3,6-trimethoxybenzyl)-N′-(1,3,4-trimethyl-1H-pyrazolo[3,4-beta]pyridin-6-yl)-2-furohydrazide]	4770 nM
Cc1cc(NNC(=O)c2ccc(Oc3cc4c(cc3Cl)N(C)C(=O)CC4(C)C)o2)nc2c1c(C)nn2C [Example L2, 5-(7-Chloro-1,4,4-trimethyl-2-oxo-1,2,3,4-tetrahydro-quinolin-6-yloxy)-furan-2-carboxylic acid N′-(1,3,4-trimethyl-1H-pyrazolo[3,4-b]pyridin-6-yl)-hydrazide]	5020 nM
CC(=O)N1CCC(C)(C)c2cc(Oc3ccc(C(=O)NNc4cc(C)c5c(C)nn(C)c5n4)o3)c(Cl)cc21 [Example I1, 5-(1-Acetyl-7-chloro-4,4-dimethyl-1,2,3,4-tetrahydro-quinolin-6-yloxy)-furan-2-carboxylic acid N′-(1,3,4-trimethyl-1H-pyrazolo[3,4-b]pyridin-6-yl)-hydrazide]	630 nM
Cc1cc2c(cc1Oc1ccc(C(=O)NNc3ccc(C(F)(F)F)cn3)o1)C(C)(C)OC2 [Example N4, 5-(3,3,6-Trimethyl-1,3-dihydro-isobenzofuran-5-yloxy)-furan-2-carboxylic acid N′-(5-trifluoromethyl-pyridin-2-yl)-hydrazide]	1500 nM
COc1ccc(OC)c(Cc2ccc(C(=O)NNc3cc(C)c4c(C)nn(C)c4n3)o2)c1 [Example J6, 5-(2,5-Dimethoxy-benzyl)-furan-2-carboxylic acid N′-(1,3,4-trimethyl-1H-pyrazolo[3,4-b]pyridin-6-yl)-hydrazide]	16100 nM
COc1cccc(OC)c1CNNC(=O)c1ccc(Cc2cc3c(cc2C)C(C)(C)CCC3(C)C)o1 [Example A2]	700 nM
COc1cc2c(cc1Cc1ccc(C(=O)NNc3nccc(NCC4CCCO4)n3)o1)C(C)(C)CCC2(C)C (stereo not drawn) [Example C7]	1740 nM
COc1cc(OC)c(CNNC(=O)c2ccc(Cc3cc4c(cc3C)C(C)(C)CCC4(C)C)o2)c(OC)c1 [Example A1, 5-[(3,5,5,8,8-Pentamethyl-5,6,7,8-tetrahydro-2-naphthalenyl)methyl]-N′-(2,4,6-trimethoxybenzyl)-2-furohydrazide]	1840 nM
Cc1ccccc1Oc1ccc(C(=O)NNc2cc(C)c3c(C)nn(C)c3n2)o1 [Example I4, 5-(2-Methylphenoxy)-N′-(1,3,4-trimethyl-1H-pyrazolo[3 ,4-b]pyridin-6-yl)-2-furohydrazide]	980 nM
Cc1nc2ccccc2c(Cl)c1Cc1ccc(C(=O)NNc2cc(C)c3c(C)nn(C)c3n2)o1 [Example K1, 5-(4-Chloro-2-methyl-quinolin-3-ylmethyl)-furan-2-carboxylic acid N′-(1,3,4-trimethyl-1H-pyrazolo[3,4-b]pyridin-6-yl)-hydrazide]	4430 nM
Cc1cc(NNC(=O)c2ccc(Oc3cc4c(cc3Cl)NC(=O)CC4(C)C)o2)nc2c1c(C)nn2C [Example L1]	2110 nM
COc1cc(Cc2ccc(C(=O)NNc3cc(C)c4c(C)nn(C)c4n3)o2)c(OC)c(OC)c1 [Example J8, 5-(2,3,5-trimethoxybenzyl)-N′-(1,3,4-trimethyl-1H-pyrazolo[3,4-b]pyridin-6-yl)-2-furohydrazide]	3890 nM
CCN(CC)C(=O)c1ccc(C)c(Oc2ccc(C(=O)NNc3cc(C)c4c(C)nn(C)c4n3)o2)c1 [Example H1, N,N-diethyl-4-methyl-3-[(5-{[2-(1,3,4-trimethyl-1H-pyrazolo[3,4-b]pyridin-6-yl)hydrazino]carbonyl}-2-furyl)oxy]benzamide]	5600 nM

These reach a lower Ki. Values come first.

Ki	SMILES
400 nM	Cc1cc(C)c(Cc2ccc(C(=O)NNc3cc(C)c4c(C)nn(C)c4n3)o2)c(C)c1 [Example J3, 5-(Mesitylmethyl)-N′-(1,3,4-trimethyl-1H-pyrazolo[3,4-b]pyridin-6-yl)-2-furohydrazide]
610 nM	Cc1ccc(C)c(Cc2ccc(C(=O)NNc3cc(C)c4c(C)nn(C)c4n3)o2)c1 [Example J17]
40 nM	Cc1cc2c(cc1Oc1ccc(C(=O)NNc3nc(N)nc(C4CC4)n3)o1)C(C)(C)CC2 [Example I13, N′-(4-Amino-6-cyclopropyl-1,3,5-triazin-2-yl)-5-[(3,3,6-trimethyl-2,3-dihydro-1H-inden-5-yl)oxy]-2-furohydrazide]
310 nM	Cc1cc(C)cc(NNC(=O)c2ccc(Cc3cc4c(cc3C)C(C)(C)CCC4(C)C)o2)c1 [Example B2, N′-(3,5-dimethylphenyl)-5-[(3,5,5,8,8-pentamethyl-5,6,7,8-tetrahydro-2-naphthalenyl)methyl]-2furohydrazide]
225 nM	Cc1cc2c(cc1Oc1ccc(C(=O)NNc3ccc(S(N)(=O)=O)cc3)o1)C(C)(C)CC2 [Example I14, 4-(2-{5-[(3,3,6-Trimethyl-2,3-dihydro-1H-inden-5-yl)oxy]-2-furoyl}hydrazino)benzenesulfonamide]
480 nM	COc1c(Cl)c(C)c(Cl)c(C)c1Cc1ccc(C(=O)NNc2cc(C)c3c(C)nn(C)c3n2)o1 [Example J30, 5-(3,5-Dichloro-2-methoxy-4,6-dimethyl-benzyl)-furan-2-carboxylic acid N′-(1,3,4-trimethyl-1H-pyrazolo[3,4-b]pyridin-6-yl)-hydrazide]
350 nM	Cc1cc2c(cc1Cc1ccc(C(=O)NNc3ccccn3)o1)C(C)(C)CCC2(C)C [Example C10, 5-[(3,5,5,8,8-Pentamethyl-5,6,7,8-tetrahydro-2-napthalenyl)methyl]-N′-(2-pyridinyl)-2-furohydrazide]
